From patent US20230405134A1, “NOVEL PROTAC CHIMERIC COMPOUND, AND PHARMACEUTICAL COMPOSITION COMPRISING SAME FOR PREVENTING, AMELIORATING, OR TREATING DISEASES THROUGH TARGET PROTEIN DEGRADATION” (POSTECH RESEARCH AND BUSINESS DEVELOPMENT FOUNDATION, priority 2020, published 2023)
Where a SMILES comes first, the peptide text is derived from it. Bridges are numbered along the chain shown (N, C = ends). [ ]: non-standard residue; d: D form. Cha = N[C@@H](CC1CCCCC1)C(=O)O; S5 = C=CCCC[C@](C)(N)C(=O)O

How the values were obtained:
[1] = system: MDA-MB-231; assay: Cell viability assay; assay type: cell-based, human; settings: MDA-MB-231, various concentrations, 48 hours
Method: (§1) To further confirm the above results, an MTT cell viability assay was performed. MDA-MB-231 (1×10^4 cells/well), HEK293T (1×10^4 cells/well) and Colo205 (2×10^4 cells/well) cells were seeded in a 96-well plate, and cultured under the conditions of 37° C. and 5% carbon dioxide. After 24 hours, the cells were washed twice with DPBS and treated with DMSO or various concentrations of ND1-YL2 in Opti-MEM medium for 48 hours. Cell viability was measured by the Cyto X cell viability assay kit (LPS solution) according to the manufacturer's instructions.

[2] = system: HEK293T; assay: Cell viability assay; assay type: cell-based; settings: various concentrations, 48 hours
Method: as §1

SMILES: CC(C)C[C@H](NC(=O)[C@H](C)NC(=O)[C@H](C)NC(=O)[C@H](C)NC(=O)[C@H](C)NC(=O)[C@H](CC(C)C)NC(=O)[C@@H](N)CCCNC(=N)N)C(=O)N[C@@H](CC(C)C)C(=O)N1CCC[C@H]1C(=O)N1CCC[C@H]1C(=O)N[C@H](C(=O)N[C@@H](CCC(=O)O)C(=O)N[C@@H](CCC(N)=O)C(=O)N[C@@H](CC(=O)O)C(=O)N[C@@H](CC(C)C)C(=O)N[C@@]1(C)CCC/C=C\CCC[C@@](C)(C(=O)N[C@@H](Cc2ccc(O)cc2)C(N)=O)NC(=O)[C@H](CC2CCCCC2)NC(=O)[C@H](CC(C)C)NC(=O)[C@H](CCCCN)NC1=O)[C@@H](C)O [ND1-YL2] (H-RLAAAALLPPTEQDL[S5]KL[Cha][S5]Y-NH2; staple (Z) 16-20)
- Effect on cell survival [1]: did not significantly affect the survival
- Effect on cell survival [2]: did not significantly affect the survival
